Measured values from patent US20160362416A1, “ANTIVIRAL COMPOUNDS” (Gilead Sciences, Inc., priority 2012, published 2016).

Key:
[1] = test system: Y93H in genotype 3a NS5A replicon; experiment: Resistance mutant replicon assay, genotype 3a NS5A Y93H; assay type: cell-based, HCV; settings: Hepatitis C virus, read-out: 3a Y93H (nM)
Summary of the method: (§1)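 Mutations introduced by site-directed mutagenesis into 1a or 1b Pi-RLuc replicons (3a Y93H in 1b Con1 chimera carrying 3a S52 NS5A), RNA transiently transfected into Huh-7-derived cured-51 cells. 3-fold compound dilutions; Renilla luciferase read after 72 h; EC50 by non-linear regression.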

[2] = IV and PO single dose pharmacokinetic studies in SD rats; assay type: in vivo; settings: Sprague-Dawley, rat, plasma, male SD rats, IV infusion 1 mg/kg, oral gavage 2 mg/kg, read-out: Rat % F
Description: IV and PO Single Dose Pharmacokinetic Studies in SD Rats: The pharmacokinetics of selected compounds was characterized in male Sprague-Dawley (SD) rats (250-300 g). In this study, two groups of naïve purebred SD rats (N=3 per group, fasted over night) received the selected compound either as an intravenous (IV) infusion (1 mg/kg over 30 minutes) via the jugular vein or by oral gavage (2 mg/kg). The intravenous (IV) dosing vehicle was 5% ethanol, 35% polyethylene glycol 400 (PEG 400) and 60% water pH 2.0. The oral dosing vehicle was 5% ethanol, 55% PEG 400 and 40% citrate buffer pH 2.2.
Serial blood samples (approximately 0.3 mL each) were collected from jugular vein or other suitable vein at specified time points. For the IV infusion group, the blood samples were collected predose and at 0.25, 0.48, 0.58, 0.75, 1.5, 3, 6, 8, 12 and 24 hours after the start of infusion. For the oral group, the blood samples were collected predose and at 0.25, 0.50, 1, 2, 4, 6, 8, 12 and 24 hours after dosing. The blood samples were collected into Vacutainer™ tubes containing EDTA-K3 as the anti-coagulant and were centrifuged at approximately 4° C. to obtain plasma. The plasma samples were stored at −20° C. until analysis by LC/MS/MS.
A bioanalytical method utilizing high performance liquid chromatography coupled to tandem mass spectrometry (LC/MS/MS) was developed for analysis of the selected compound in rat plasma. Detection was performed using selected reaction monitoring (SRM); Ions representing the precursor (M+H)^+ species was selected in quadrupole 1 (Q1) and collided with argon gas in the collision cell (Q2) to generate specific product ion, which was subsequently monitored by quadrupole 3 (Q3). Standard curve and quality control samples were prepared in male rat plasma and processed in the same way as the test samples to generate quantitative data.
Pharmacokinetic parameters were generated using non-compartmental pharmacokinetic analysis (Phoenix WinNonlin, version 6.3). Values below the lower limit of quantification (LLOQ) were assigned a value of zero if predose and treated as missing thereafter. Area under the curve (AUC) was calculated using the linear trapezoidal rule. The oral bioavailability (% F) was determined by comparison of the area under the curve (AUC) of the compound and/or a metabolite generated in plasma following oral administration to that generated following intravenous administration.

[3] = test system: Y93N in genotype 1a NS5A replicon; experiment: Resistance mutant replicon assay, genotype 1a NS5A Y93N; assay type: cell-based, HCV; settings: Hepatitis C virus, read-out: 1a Y93N (nM)
Summary of the method: as §1

[4] = test system: stable HCV 1a RLuc replicon cells (genotype 1a H77 replicon); experiment: HCV genotype 1a RLuc replicon reporter assay; assay type: cell-based; settings: Hepatitis C virus; stable genotype 1a H77 RLuc replicon cells, 72 hours
[5] = test system: stable HCV 1b RLuc replicon cells (genotype 1b Con1 replicon); experiment: HCV genotype 1b RLuc replicon reporter assay; assay type: cell-based; settings: Hepatitis C virus; stable genotype 1b Con1 RLuc replicon cells, 72 hours
Summary of the method: (§2)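 EC50 derived by non-linear regression of Renilla luciferase signal measured in lysates 72 h after adding 3-fold serial compound dilutions. Replicons: stable genotype 1b Con1 cells; transient Huh-Lunet transfections of NS5A chimeras—4a ED43 or 3a S52 in Con1, 2b MD2b-1 (M31) in JFH-1.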

[6] = test system: L31V/Y93H in genotype 1b NS5A replicon; experiment: Resistance mutant replicon assay, genotype 1b NS5A L31V/Y93H; assay type: cell-based, HCV; settings: Hepatitis C virus, read-out: 1b L31V/Y93H (nM)
Description: (§3) Evaluation of cell-based anti-HCV activity: Antiviral potency (EC50) was determined using a Renilla luciferase (RLuc)-based HCV replicon reporter assay. To perform the assay for genotype 1 and 2a JFH-1, stable HCV 1a RLuc replicon cells (harboring a dicistronic genotype 1a H77 replicon that encodes a RLuc reporter), stable HCV lb RLuc replicon cells (harboring a dicistronic genotype 1b Conl replicon that encodes a RLuc reporter), or stable HCV 2a JFH-1 Rluc replicon cells (harboring a dicistronic genotype 2a JFH-1 replicon that encodes a RLuc reporter; with L31 present in NS5A) were dispensed into 384-well plates for EC50 assays. To perform the assay for genotype 2a (with M31 present in NS5A) or 2b, NS5A chimeric genotype 2a JFH-1 replicons that encodes a RLuc-Neo reporter and either genotype 2a J6 strain NS5A gene or genotype 2b MD2b-1 strain NS5A gene (both with M31 present) respectively, were either transiently transfected (t) into Huh-Lunet cells or were established as stably replicating replicon cells (s) is provided. Either cells were dispensed into 384-well plates for EC50 assays. To perform the assay for genotype 3 and 4, NS5A chimeric genotype 1b Conl replicons that encodes a Pi-RLuc reporter and either genotype 3a S52 strain NS5A gene or genotype 4a ED43 strain NS5A gene respectively, were transiently transfected (t) into Huh-Lunet cells, which were subsequently dispensed into 384-well plates. Compounds were dissolved in DMSO at a concentration of 10 mM and diluted in DMSO either manually or using an automated pipeting instrument. Serially 3-fold diluted compounds were either manually mixed with cell culture media and added to the seeded cells or directly added to the cells using an automated instrument. DMSO was used as a negative (solvent; no inhibition) control, and the protease inhibitor ITMN-191 was included at a concentration >100×EC50 as a positive control. 72 hours later, cells were lysed and Renilla luciferase activity quantified as recommended by the manufacturer (Promega-Madison, Wis.). Non-linear regression was performed to calculate EC50 values.
(§4) To determine the antiviral potency (EC50) against resistance mutants, resistance mutations, including M28T, Q30R, Q30H, Q30E, L31M, Y93C, Y93H, and Y93N in genotype 1a NS5A, Y93H and L31V/Y93H in genotype 1b NS5A, and Y93H for in genotype 3a NS5A, were introduced individually into either 1a Pi-Rluc or 1b Pi-Rluc replicons by site directed mutagenesis. Replicon RNA of each resistant mutant was transiently transfected into Huh-7-derived cured-51 cells and antiviral potency was determined on these transfected cells as described above.

[7] = test system: Q30E in genotype 1a NS5A replicon; experiment: Resistance mutant replicon assay, genotype 1a NS5A Q30E; assay type: cell-based, HCV; settings: Hepatitis C virus, read-out: 1a Q30E (nM)
Description: as §3, §4

[8] = test system: Q30R in genotype 1a NS5A replicon; experiment: Resistance mutant replicon assay, genotype 1a NS5A Q30R; assay type: cell-based, HCV; settings: Hepatitis C virus, read-out: 1a Q30R (nM)
Description: as §3, §4

[9] = test system: NS5A chimeric genotype 2a JFH-1 replicon with genotype 2b MD2b-1 strain NS5A gene (M31); experiment: HCV genotype 2b NS5A chimeric replicon assay, transient (t); assay type: cell-based; settings: Hepatitis C virus, 72 h, read-out: 2b (t) (nM)
Description: as §3

[10] = test system: NS5A chimeric genotype 1b Con1 replicon with genotype 4a ED43 strain NS5A gene; experiment: HCV genotype 4a NS5A chimeric replicon assay; assay type: cell-based; settings: Hepatitis C virus, 72 h, read-out: 4a (s) (nM)
[11] = test system: NS5A chimeric genotype 1b Con1 replicon with genotype 3a S52 strain NS5A gene; experiment: HCV genotype 3a NS5A chimeric replicon assay; assay type: cell-based; settings: Hepatitis C virus, 72 h, read-out: 3a (nM)
Summary of the method: as §2

[12] = test system: stable HCV 2a JFH-1 Rluc replicon cells (L31 present in NS5A); experiment: HCV genotype 2a JFH-1 RLuc replicon reporter assay; assay type: cell-based; settings: Hepatitis C virus, 72 h, read-out: 2a JFH (nM)
[13] = test system: NS5A chimeric genotype 2a JFH-1 replicon with genotype 2a J6 strain NS5A gene (M31); experiment: HCV genotype 2a J6 NS5A chimeric replicon assay, transient (t); assay type: cell-based; settings: Hepatitis C virus, 72 h, read-out: 2a J6 (t) (nM)
[14] = test system: Y93H in genotype 1a NS5A replicon; experiment: Resistance mutant replicon assay, genotype 1a NS5A Y93H; assay type: cell-based, HCV; settings: Hepatitis C virus, read-out: 1a Y93H (nM)
Summary of the method: as §1

[15] = test system: NS5A chimeric genotype 2a JFH-1 replicon with genotype 2b MD2b-1 strain NS5A gene (M31); experiment: HCV genotype 2b NS5A chimeric replicon assay, stable (s); assay type: cell-based; settings: Hepatitis C virus, 72 h, read-out: 2b (s) (nM)

Row | Structure (SMILES) | EC50 [1] [nM] | bioavailability [2] [%] | EC50 [3] [nM] | EC50 [4] [nM] | EC50 [5] [nM] | EC50 [6] [nM] | EC50 [7] [nM] | EC50 [8] [nM] | EC50 [9] [nM] | EC50 [10] [nM] | EC50 [11] [nM] | EC50 [12] [nM] | EC50 [13] [nM] | EC50 [14] [nM] | EC50 [15] [nM]
1 | CC[C@H]1C[C@@H](c2nc3ccc4cc5c(cc4c3[nH]2)OCc2cc(-c3cnc([C@@H]4CC[C@H](C)N4C(=O)[C@@H](NC(=O)OC)C(C)C)[nH]3)ccc2-5)N(C(=O)[C@@H](NC(=O)OC)C2CCOCC2)C1 [Comp 1, reference compound] | 8.07 | 9.9 | 2.05 | 0.018 | 0.027 | 0.971 | 0.319 |  |  |  |  |  |  |  | 
2 | COC(=O)N[C@H](C(=O)N1[C@@H](C)CC[C@H]1c1ncc(-c2ccc3c(c2)COc2cc4c(ccc5nc([C@@H]6CC[C@H](C)N6C(=O)[C@@H](NC(=O)OC)C6CCOCC6)[nH]c54)cc2-3)[nH]1)C1CCOCC1 [Comp 6, reference compound] | 0.252 |  |  | 0.024 | 0.051 |  | 0.101 | 0.042 | 0.092 | 0.014 | 0.075 | 0.012 | 0.012 | 0.442 | 0.038
3 | CC[C@H](C)[C@H](NC(=O)OC)C(=O)N1[C@H](c2ncc(-c3ccc4c(c3)COc3cc5c(ccc6nc([C@@H]7CC[C@H](C)N7C(=O)[C@@H](NC(=O)OC)C7CCOCC7)[nH]c65)cc3-4)[nH]2)C[C@@H]2CCC[C@@H]21 [Comp 9, reference compound] | 40.9 | 0.571 | 10.6 | 0.028 | 0.034 |  |  | 0.26 |  | 40.9 |  |  |  | 3.5 | 
4 | COC(=O)N[C@H](C(=O)N1[C@@H](C)CC[C@H]1c1ncc(-c2ccc3c(c2)COc2cc4c(ccc5nc([C@@H]6C[C@@H]7CCC[C@@H]7N6C(=O)[C@@H](NC(=O)OC)C6CCOCC6)[nH]c54)cc2-3)[nH]1)C(C)C [Comp 10, reference compound] | 21.8 |  | 3.74 | 0.015 | 0.024 | 0.024 | 0.716 | 0.123 |  | 21.8 |  |  | 0.024 |  | 
5 | CC[C@H]1CC[C@@H](c2nc3ccc4cc5c(cc4c3[nH]2)OCc2cc(-c3cnc([C@@H]4CC[C@H](C)N4C(=O)[C@@H](NC(=O)OC)C(C)C)[nH]3)ccc2-5)N1C(=O)[C@@H](NC(=O)OC)C1C[C@@H](C)O[C@H](C)C1 (stereo partly drawn) [Example AC, Methyl {(1S)-1-[(2R,6R)-2,6-dimethyltetrahydro-2H-pyran-4-yl]-2-[(2S,5S)-2-ethyl-5-(9-{2-[(2S,5S)-1-{(2S)-2-[(methoxycarbonyl)amino]-3-methylbutanoyl}-5-methylpyrrolidin-2-yl]-1H-imidazol-5-yl}-1,11-dihydroisochromeno[4′,3′:6,7]naphtho[1,2-d]imidazol-2-yl)pyrrolidin-1-yl]-2-oxoethyl}carbamate] | 14.5 |  | 1.63 | 0.025 | 0.03 | 1.33 | 0.312 |  | 0.02 | 0.005 | 0.019 | 0.016 | 0.003 | 0.832 | 
6 | CC[C@H]1C[C@@H](c2nc3ccc4cc5c(cc4c3[nH]2)OCc2cc(-c3cnc([C@@H]4CC[C@H](C)N4C(=O)[C@@H](NC(=O)OC)C(C)C)[nH]3)ccc2-5)N(C(=O)[C@@H](NC(=O)OC)C2C[C@@H](C)O[C@H](C)C2)C1 (stereo partly drawn) [Example AF, Methyl [(1S)-1-[(2R,6R)-2,6-dimethyltetrahydro-2H-pyran-4-yl]-2-{(2S,4S)-4-ethyl-2-[9-(2-{(2S,5S)-1-[N-(methoxycarbonyl)-L-valyl]-5-methylpyrrolidin-2-yl}-1H-imidazol-5-yl)-1,11-dihydroisochromeno[4′,3′:6,7]naphtho[1,2-d]imidazol-2-yl]pyrrolidin-1-yl}-2-oxoethyl]carbamate] | 4.59 |  | 0.899 | 0.022 | 0.037 | 0.18 | 0.097 |  | 0.014 | 0.005 | 0.016 | 0.012 | 0.003 | 0.268 | 
